What was measured:
[1] = Apparent permeability of the compound from apical to basolateral side of human Caco2 cells; assay type: ADME, cell-based; conditions: Caco-2
Hepatitis C virus [2] = assay: Antiviral activity against Hepatitis C virus genotype 1b infected in Huh7-clone ET Rep cells assessed as inhibition of HCV replication by luciferase assay; assay type: functional, organism-based, Hepacivirus hominis
[3] = Inhibition of Hepatitis C virus genotype 1a full-length NS3/4A protease; set-up: species or system Hepatitis C virus subtype 1a
[4] = Intrinsic clearance in human liver microsomes; assay type: ADME; conditions: read-out: CLH
[5] = Volume of distribution at steady state in Sprague-Dawley rat at 2 mg/kg, iv administered as single dose with 20% Hydroxypropyl-beta-cyclodextrine; assay type: ADME, organism-based; set-up: dose 2 mg/kg, route intravenous; conditions: in vivo, read-out: Vdss
[6] = Plasma clearance in rat; assay type: ADME, organism-based
[7] = Oral bioavailability in rat; assay type: ADME, organism-based; conditions: in vivo
[8] = Metabolic stability in rat bile assessed as unchanged drug level at 1 mg/kg, iv after 1 hr; assay type: ADME, organism-based; set-up: dose 1 mg/kg, route intravenous; conditions: read-out: Stability
[9] = Cmax in Sprague-Dawley rat at 10 mg/kg, po administered with 50% PEG400 containing 2.5% of Vitamin E-TPGS; assay type: ADME, organism-based; set-up: dose 10 mg/kg, route oral; conditions: in vivo
[10] = Tmax in Sprague-Dawley rat at 10 mg/kg, po administered with 50% PEG400 containing 2.5% of Vitamin E-TPGS; assay type: ADME, organism-based; set-up: dose 10 mg/kg, route oral; conditions: in vivo
[11] = Oral bioavailability in Sprague-Dawley rat at 10 mg/kg administered with 50% PEG400 containing 2.5% of Vitamin E-TPGS; assay type: ADME, organism-based; conditions: in vivo
[12] = Clearance in Sprague-Dawley rat at 2 mg/kg, iv administered as single dose with 20% Hydroxypropyl-beta-cyclodextrine; assay type: ADME, organism-based; set-up: dose 2 mg/kg, route intravenous; conditions: in vivo
[13] = Half life in Sprague-Dawley rat at 10 mg/kg, po administered with 50% PEG400 containing 2.5% of Vitamin E-TPGS; assay type: ADME, organism-based; set-up: dose 10 mg/kg, route oral; conditions: in vivo
[14] = Inhibition of Hepatitis C virus genotype 1b NS3/4A protease; set-up: species or system Hepatitis C virus subtype 1b
[15] = Cytotoxicity against staphylococcal enterotoxin B-stimulated human PBMC assessed as decrease in cell viability after 72 hrs by WST-1 assay; assay type: cell-based
Hepatitis C virus [16] = assay: Antiviral activity against Hepatitis C virus infected in po dosed patient assessed as log10 reduction of HCV RNA level administered qd for 5 days; assay type: functional, Hepacivirus hominis
PBMC = assay: Cytostatic activity against staphylococcal enterotoxin B-stimulated human PBMC assessed as decrease in cell proliferation after 7 hrs by [3H]thymidine incorporation assay; assay type: cell-based; conditions: read-out: CS50 (the source's name)
[17] = Protein binding in plasma (unknown origin); assay type: ADME, cell-free; conditions: read-out: PPB
[18] = Drug metabolism in human liver microsomes at 5 uM at 37 degC after 15 mins; assay type: ADME; conditions: read-out: Drug metabolism
Hepatitis C virus [19] = assay: Antiviral activity against Hepatitis C virus genotype 1a; assay type: functional, organism-based, Hepacivirus hominis; conditions: subtype 1a
[20] = AUC in Sprague-Dawley rat at 10 mg/kg, po administered with 50% PEG400 containing 2.5% of Vitamin E-TPGS; assay type: ADME, organism-based; set-up: dose 10 mg/kg, route oral; conditions: plasma
[21] = Ratio of drug level in liver to plasma in Sprague-Dawley rat at 2 mg/kg, iv administered as single dose with 20% Hydroxypropyl-beta-cyclodextrine measured after 6 hrs; assay type: ADME, organism-based; set-up: dose 2 mg/kg, route intravenous; conditions: liver and plasma
[22] = Ratio of drug level in liver to plasma in Sprague-Dawley rat at 10 mg/kg, po administered with 50% PEG400 containing 2.5% of Vitamin E-TPGS measured after 6 hrs; assay type: ADME, organism-based; set-up: dose 10 mg/kg, route oral; conditions: liver and plasma
Hepatitis C virus [23] = assay: Antiviral activity against Hepatitis C virus genotype 1 infected in human patient assessed as log10 reduction of viral RNA level administered as oral dose measured after 2 days; assay type: functional, Hepacivirus hominis

Row | Compound | EC50 (Hepatitis C virus [2]) [nM] | Ki [3] [nM] | other results
1 | CCc1cnc(-c2ccc(C)cc2NC(=O)O[C@@H]2C[C@H]3C(=O)N[C@]4(C(=O)NS(=O)(=O)C5CC5)C[C@H]4/C=C\CCCCN(C)C(=O)[C@@H]3C2)s1 | 3.2 | 0.2 | Papp A→B [1]: 15 ×10⁻⁶ cm/s; microsomal CLint [4]: < 6 µL/min/mg
2 | COc1ccc2c(O[C@@H]3C[C@H]4C(=O)N[C@]5(C(=O)NS(=O)(=O)C6CC6)C[C@H]5/C=C\CCCCN(C)C(=O)N4C3)nc(-c3ccccc3)nc2c1C | 11 | 0.2 | Papp A→B [1]: 26 ×10⁻⁶ cm/s; Vd [5]: 1.1 L/kg; microsomal CLint [4]: 17 µL/min/mg
3 | COc1ccc2c(O[C@@H]3C[C@H]4C(=O)N[C@]5(C(=O)O)C[C@H]5/C=C\CCCCN(C(=O)OC(C)(C)C)C(=O)[C@@H]4C3)cc(-c3ccccc3)nc2c1 | > 10 | 31 | –
4 | COc1ccc2c(O[C@@H]3C[C@H]4C(=O)N[C@]5(C(=O)O)C[C@H]5/C=C\CCCN(C(=O)OC(C)(C)C)C(=O)[C@@H]4C3)cc(-c3ccccc3)nc2c1 | > 10 | 130 | –
5 | COc1ccc(-c2nc(O[C@@H]3C[C@H]4C(=O)N[C@]5(C(=O)NS(=O)(=O)C6CC6)C[C@H]5/C=C\CCCCN(C)C(=O)N4C3)c3ccc(OC)c(C)c3n2)cc1 | 3 | 0.6 | Papp A→B [1]: 33 ×10⁻⁶ cm/s; microsomal CLint [4]: 8 µL/min/mg
6 | COc1ccc2c(O[C@H]3C=C4C(=O)N(N)CCCC/C=C\[C@@H]5C[C@@]5(C(=O)O)NC(=O)C4C3)cc(-c3ccccc3)nc2c1 (stereo partly specified) | 5.4 | 15 | –
7 | COc1ccc2c(O[C@@H]3C[C@H]4C(=O)N[C@]5(C(=O)NS(=O)(=O)C6CC6)C[C@H]5/C=C\CCCCN(NC(=O)OC(C)(C)C)C(=O)[C@@H]4C3)cc(-c3ccccc3)nc2c1 | 0.53 | 0.07 | –
8 | COc1ccc2c(O[C@@H]3C[C@H]4C(=O)N[C@]5(C(=O)NS(=O)(=O)C6CC6)C[C@H]5/C=C\CCCCN(N)C(=O)[C@@H]4C3)cc(-c3ccccc3)nc2c1 | 0.033 | 0.19 | –
9 | COc1ccc2c(O[C@H]3C[C@H]4C(=O)NCCCC/C=C\[C@@H]5C[C@@]5(C(=O)NS(=O)(=O)C5CC5)NC(=O)[C@@H]4C3)cc(-c3ccccc3)nc2c1 | 4.4 | 2.2 | –
10 | COc1ccc2c(O[C@H]3C[C@H]4C(=O)NCCCC/C=C\[C@@H]5C[C@@]5(C(=O)O)NC(=O)[C@@H]4C3)cc(-c3ccccc3)nc2c1 | > 10 | 260 | –
11 | COc1ccc2c(O[C@@H]3C[C@H]4C(=O)N[C@]5(C(=O)NS(=O)(=O)C6CC6)C[C@H]5/C=C\CCCCN(C)C(=O)[C@@H]4C3)cc(-c3ccccc3)nc2c1 | – | – | clearance [6]: 46.5 mL/min/kg; bioavailability [7]: 2.5%; remaining at 1 h [8]: 95%
12 | C=C[C@@H]1C[C@]1(NC(=O)[C@@H]1C[C@@H](Oc2cc(-c3ccccc3)nc3cc(OC)ccc23)C[C@H]1C(=O)N[C@H](C(=O)N[C@H](C(=O)NC)C1CCCCC1)C(C)(C)C)C(=O)O | – | 22 | –
13 | COc1ccc2c(O[C@@H]3C[C@H]4C(=O)N[C@]5(C(=O)NS(=O)(=O)C6CC6)C[C@H]5/C=C\COCCN(C)C(=O)[C@@H]4C3)cc(-c3ccccc3)nc2c1 | 320 | – | –
14 | COc1cc(O[C@@H]2C[C@H]3C(=O)N[C@]4(C(=O)NS(=O)(=O)C5CC5)C[C@H]4/C=C\CCCCN(C)C(=O)N3C2)nc(-c2ccccc2)n1 | 84 | – | –
15 | C=C[C@@H]1C[C@]1(NC(=O)[C@@H]1C[C@@H](Oc2cc(-c3ccccc3)nc3cc(OC)ccc23)C=C1C(=O)N[C@H](C(=O)N[C@H](C(=O)NC)C1CCCCC1)C(C)(C)C)C(=O)O | – | 1.3 | –
16 | COc1ccc2c(O[C@@H]3C[C@H]4C(=O)N[C@]5(C(=O)O)C[C@H]5/C=C\CCCCN(N)C(=O)[C@@H]4C3)cc(-c3ccccc3)nc2c1 | 7.6 | 6 | –
17 | COc1ccc2c(O[C@@H]3C[C@H]4C(=O)N[C@]5(C(=O)NS(=O)(=O)C6(C)CC6)C[C@H]5/C=C\CCCCCC(=O)N4C3)cc(-c3nc(C(C)C)cs3)nc2c1C | 3.8 | 0.2 | Cmax [9]: 930 nM; Tmax [10]: 0.75 h; Papp A→B [1]: 11.1 ×10⁻⁶ cm/s; bioavailability [11]: 31%; Vd [5]: 0.56 L/kg; clearance [12]: 15.7 mL/min/kg; half-life [13]: 2.7 h
18 | H-DDIVPC-OH | – | 71000 | –
19 | COc1ccc2c(O[C@@H]3C[C@H]4C(=O)N[C@]5(C(=O)O)C[C@H]5/C=C\CCCCCN(C(=O)OC(C)(C)C)C(=O)[C@@H]4C3)cc(-c3ccccc3)nc2c1 | > 10 | 710 | –
20 | COc1ccc2c(O[C@@H]3C[C@H]4C(=O)N[C@]5(C(=O)NS(=O)(=O)C6CC6)C[C@H]5/C=C\CCCCN(C)C(=O)[C@@H]4C3)cc(-c3nc(C(C)C)cs3)nc2c1C [SIMEPREVIR] | 7.8 | 0.36 | EC90 (Hepatitis C virus [2]): 19 nM; Ki [14]: 1.4 nM; CC50 at 72 h [15]: ≥ 10000 nM; FC (Hepatitis C virus [16]): 3.9; GI50 (PBMC): ≥ 10000 nM; fraction unbound [17]: < 0.01
21 | CCOc1cc(O[C@@H]2C[C@H]3C(=O)N[C@]4(C(=O)NS(=O)(=O)C5CC5)C[C@H]4/C=C\CCCCN(C)C(=O)[C@@H]3C2)c2ccc(OC)c(C)c2n1 | 4.3 | – | –
22 | COc1ccc2c(O[C@@H]3C[C@H]4C(=O)N[C@]5(C(=O)O)C[C@H]5/C=C/CCCCC[C@H](NC(=O)OC5CCCC5)C(=O)N4C3)cc(-c3csc(NC(C)C)n3)nc2c1 [listing 1 of 2 here] | 1.63 | – | Ki [14]: 0.66 nM; metabolised at 0.25 h, 5 µM [18]: 2.5%; EC50 (Hepatitis C virus [19]): 4 nM
23 | COc1ccc2c(O[C@@H]3C[C@H]4C(=O)N[C@]5(C(=O)NS(=O)(=O)C6(C)CC6)C[C@H]5/C=C\CCCCCNC(=O)N4C3)cc(-c3nc(C(C)C)cs3)nc2c1 | – | – | AUC [20]: 6 µM·h; Tmax [10]: 0.75 h; metabolised at 0.25 h, 5 µM [18]: 89%; Kp at 6 h [21]: 550; Kp at 6 h [22]: 100; Vd [5]: 1 L/kg; half-life [13]: 3 h
24 | COc1ccc2c(O[C@@H]3C[C@H]4C(=O)N[C@]5(C(=O)O)C[C@H]5/C=C\CCCCN(C)C(=O)[C@@H]4C3)cc(-c3ccccc3)nc2c1 | 2.2 | 44 | –
25 | COc1ccc2c(O[C@@H]3C[C@H]4C(=O)N[C@]5(C(=O)O)C[C@H]5/C=C/CCCCC[C@H](NC(=O)OC5CCCC5)C(=O)N4C3)cc(-c3csc(NC(C)C)n3)nc2c1 [listing 2 of 2 here] | – | – | FC (Hepatitis C virus [23]): 2
